Measured values from ChEMBL document CHEMBL1201862, “PubChem BioAssay data set” (2004).
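48-hour exposure; five concentrations; linearly interpolated endpoints. GI50: concentration for 50% inhibition of growth.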 Calls of active or inactive are those of the source. No stated cut-off is given here; in the data, active = GI50 up to about 1.1 µM and inactive = higher.

Legend:
Test in all cases: NCI tumour cell line growth inhibition, 48 h
DU-145 = system: DU-145
UACC-257 = system: UACC-257
SF-539 = system: SF-539
NCI/ADR-RES = system: NCI/ADR-RES
SN12C = system: SN12C
M14 = system: M14
RPMI-8226 = system: RPMI-8226
EKVX = system: EKVX
TK-10 = system: TK-10
MDA-MB-435 = system: MDA-MB-435
CCRF-CEM = system: CCRF-CEM
COLO 205 = system: COLO 205
HCT-116 = system: HCT-116
OVCAR-8 = system: OVCAR-8
MOLT-4 = system: MOLT-4
UACC-62 = system: UACC-62
PC-3 = system: PC-3
HL-60 = system: HL-60
NCI-H522 = system: NCI-H522
SR = system: SR
NCI-H23 = system: NCI-H23
NCI-H460 = system: NCI-H460
MDA-MB-231 = system: MDA-MB-231
KM12 = system: KM12
MDA-N = system: MDA-N
SF-268 = system: SF-268
U-251 = system: U-251
HOP-92 = system: HOP-92
OVCAR-3 = system: OVCAR-3
SF-295 = system: SF-295
HCC 2998 = system: HCC 2998
HCT-15 = system: HCT-15
SNB-19 = system: SNB-19
CAKI-1 = system: CAKI-1
786-0 = system: 786-0
T47D = system: T47D
Malme-3M = system: Malme-3M
A498 = system: A498
HT-29 = system: HT-29
ACHN = system: ACHN
HOP-62 = system: HOP-62
OVCAR-5 = system: OVCAR-5
A549 = system: A549
SW-620 = system: SW-620
BT-549 = system: BT-549
MCF7 = system: MCF7
SNB-75 = system: SNB-75
Hs-578T = system: Hs-578T
SK-MEL-28 = system: SK-MEL-28
OVCAR-4 = system: OVCAR-4
SK-MEL-5 = system: SK-MEL-5
UO-31 = system: UO-31
SK-MEL-2 = system: SK-MEL-2
LOX IMVI = system: LOX IMVI
IGROV-1 = system: IGROV-1
K562 = system: K562
NCI-H226 = system: NCI-H226
RXF 393 = system: RXF 393
SK-OV-3 = system: SK-OV-3

Fc1ccc(OCc2ccc3nc(-c4ccccc4)c(Cl)nc3c2)cc1
GI50 (DU-145): 30.5 µM (inactive) | GI50 (UACC-257): > 100 µM (inactive) | GI50 (SF-539): 16 µM (inactive) | GI50 (NCI/ADR-RES): 34.1 µM (inactive) | GI50 (SN12C): 56.6 µM (inactive) | GI50 (M14): 67.8 µM (inactive) | GI50 (RPMI-8226): 96.2 µM (inactive) | GI50 (EKVX): 39.6 µM (inactive) | GI50 (TK-10): 31.8 µM (inactive) | GI50 (MDA-MB-435): 91.4 µM (inactive) | GI50 (CCRF-CEM): 25.7 µM (inactive) | GI50 (COLO 205): 37.1 µM (inactive) | GI50 (HCT-116): 31.6 µM (inactive) | GI50 (OVCAR-8): 36.4 µM (inactive) | GI50 (MOLT-4): 21.6 µM (inactive) | GI50 (UACC-62): 28.8 µM (inactive) | GI50 (PC-3): 37.2 µM (inactive) | GI50 (HL-60): 33.3 µM (inactive) | GI50 (NCI-H522): 6.19 µM (inactive) | GI50 (SR): 16.1 µM (inactive) | GI50 (NCI-H23): 25.3 µM (inactive) | GI50 (NCI-H460): 30.1 µM (inactive) | GI50 (MDA-MB-231): 20 µM (inactive) | GI50 (KM12): 51.6 µM (inactive) | GI50 (MDA-N): 72.4 µM (inactive) | GI50 (SF-268): 26 µM (inactive) | GI50 (U-251): 16.8 µM (inactive) | GI50 (HOP-92): 25.7 µM (inactive) | GI50 (OVCAR-3): 47.6 µM (inactive) | GI50 (SF-295): 21.4 µM (inactive) | GI50 (HCC 2998): 40.5 µM (inactive) | GI50 (HCT-15): > 100 µM | GI50 (SNB-19): > 10 µM (inactive) | GI50 (CAKI-1): 22.1 µM (inactive) | GI50 (786-0): 16.9 µM (inactive) | GI50 (T47D): 31.6 µM (inactive) | GI50 (Malme-3M): 9.44 µM (inactive) | GI50 (A498): 25.8 µM (inactive) | GI50 (HT-29): 65.2 µM (inactive) | GI50 (ACHN): 25.4 µM (inactive) | GI50 (HOP-62): 16.3 µM (inactive) | GI50 (OVCAR-5): 41.7 µM (inactive) | GI50 (A549): 38.6 µM (inactive) | GI50 (SW-620): 77.3 µM (inactive) | GI50 (BT-549): 31.1 µM (inactive) | GI50 (MCF7): 53.1 µM (inactive) | GI50 (SNB-75): 16.7 µM (inactive) | GI50 (Hs-578T): 24.7 µM (inactive) | GI50 (SK-MEL-28): 69.3 µM (inactive) | GI50 (OVCAR-4): 39.5 µM (inactive) | GI50 (SK-MEL-5): 17 µM (inactive) | GI50 (UO-31): > 100 µM (inactive) | GI50 (SK-MEL-2): 41.9 µM (inactive) | GI50 (LOX IMVI): 88.5 µM (inactive) | GI50 (IGROV-1): 25.1 µM (inactive)

CC(=O)N1C(c2[nH]c3ccccc3c2Cc2ccccc2)CCN1c1ccccc1 (configuration not stated)
GI50 (DU-145): > 10 µM (inactive) | GI50 (UACC-257): > 10 µM (inactive) | GI50 (SF-539): > 10 µM (inactive) | GI50 (NCI/ADR-RES): 9.02 µM (inactive) | GI50 (SN12C): > 10 µM (inactive) | GI50 (M14): 7.93 µM (inactive) | GI50 (RPMI-8226): 6.49 µM (inactive) | GI50 (EKVX): > 10 µM (inactive) | GI50 (K562): 3.05 µM (inactive) | GI50 (TK-10): > 10 µM (inactive) | GI50 (MDA-MB-435): 9.06 µM (inactive) | GI50 (CCRF-CEM): 3.66 µM (inactive) | GI50 (COLO 205): 8.81 µM (inactive) | GI50 (HCT-116): 4.72 µM (inactive) | GI50 (OVCAR-8): > 10 µM (inactive) | GI50 (MOLT-4): 4.4 µM (inactive) | GI50 (PC-3): 3.24 µM (inactive) | GI50 (HL-60): 5.42 µM (inactive) | GI50 (NCI-H522): 8.47 µM (inactive) | GI50 (SR): 4.81 µM (inactive) | GI50 (NCI-H23): 8.59 µM (inactive) | GI50 (NCI-H460): 5.22 µM (inactive) | GI50 (MDA-MB-231): > 10 µM (inactive) | GI50 (MDA-N): 7.29 µM (inactive) | GI50 (NCI-H226): > 10 µM (inactive) | GI50 (SF-268): 4.72 µM (inactive) | GI50 (OVCAR-3): > 10 µM (inactive) | GI50 (SF-295): 4.35 µM (inactive) | GI50 (HCC 2998): 5.97 µM (inactive) | GI50 (HCT-15): > 10 µM | GI50 (SNB-19): > 10 µM (inactive) | GI50 (CAKI-1): 8.47 µM (inactive) | GI50 (786-0): > 10 µM (inactive) | GI50 (T47D): 6.41 µM (inactive) | GI50 (Malme-3M): > 10 µM (inactive) | GI50 (HT-29): > 10 µM (inactive) | GI50 (ACHN): 3.04 µM (inactive) | GI50 (HOP-62): > 10 µM (inactive) | GI50 (OVCAR-5): > 10 µM (inactive) | GI50 (A549): 4.88 µM (inactive) | GI50 (RXF 393): 4.16 µM (inactive) | GI50 (SW-620): > 10 µM (inactive) | GI50 (BT-549): > 10 µM (inactive) | GI50 (MCF7): 8.45 µM (inactive) | GI50 (SNB-75): 5.83 µM (inactive) | GI50 (Hs-578T): 9.31 µM (inactive) | GI50 (SK-MEL-28): > 10 µM (inactive) | GI50 (OVCAR-4): > 10 µM (inactive) | GI50 (SK-MEL-5): > 10 µM (inactive) | GI50 (SK-OV-3): > 10 µM (inactive) | GI50 (UO-31): 8.73 µM (inactive) | GI50 (SK-MEL-2): > 10 µM (inactive) | GI50 (LOX IMVI): > 10 µM (inactive) | GI50 (IGROV-1): > 10 µM (inactive)

Cc1cc(C)c2c(=O)n(CC(O)CN(Cc3ccccc3)CC(O)Cn3sc4nc(C)cc(C)c4c3=O)sc2n1 (configuration not stated)
GI50 (DU-145): 17.9 µM (inactive) | GI50 (UACC-257): 17.2 µM (inactive) | GI50 (SF-539): 17.7 µM (inactive) | GI50 (NCI/ADR-RES): 22.4 µM (inactive) | GI50 (SN12C): 18.1 µM (inactive) | GI50 (M14): 17.4 µM (inactive) | GI50 (RPMI-8226): 3.61 µM (inactive) | GI50 (EKVX): 22.2 µM (inactive) | GI50 (K562): 24.2 µM (inactive) | GI50 (TK-10): 17.4 µM (inactive) | GI50 (MDA-MB-435): 17 µM (inactive) | GI50 (CCRF-CEM): 6.05 µM (inactive) | GI50 (COLO 205): 7.73 µM (inactive) | GI50 (HCT-116): 17.3 µM (inactive) | GI50 (OVCAR-8): 18.9 µM (inactive) | GI50 (MOLT-4): 3.25 µM (inactive) | GI50 (UACC-62): 16.9 µM (inactive) | GI50 (PC-3): 16.8 µM (inactive) | GI50 (HL-60): 33.2 µM (inactive) | GI50 (NCI-H522): 10 µM (inactive) | GI50 (SR): 8.99 µM (inactive) | GI50 (NCI-H23): 18 µM (inactive) | GI50 (NCI-H460): 19.7 µM (inactive) | GI50 (MDA-MB-231): 17.7 µM (inactive) | GI50 (KM12): 17.2 µM (inactive) | GI50 (MDA-N): 17.9 µM (inactive) | GI50 (NCI-H226): 18.5 µM (inactive) | GI50 (SF-268): 17.1 µM (inactive) | GI50 (U-251): 16.9 µM (inactive) | GI50 (HOP-92): 17.2 µM (inactive) | GI50 (OVCAR-3): 16.2 µM (inactive) | GI50 (SF-295): 22.1 µM (inactive) | GI50 (HCC 2998): 18.8 µM (inactive) | GI50 (HCT-15): 17.3 µM | GI50 (SNB-19): 18.5 µM (inactive) | GI50 (CAKI-1): 18.8 µM (inactive) | GI50 (786-0): 14.6 µM (inactive) | GI50 (T47D): 18.2 µM (inactive) | GI50 (Malme-3M): 14.3 µM (inactive) | GI50 (HT-29): 19.6 µM (inactive) | GI50 (ACHN): 16.5 µM (inactive) | GI50 (HOP-62): 14.4 µM (inactive) | GI50 (OVCAR-5): 20.1 µM (inactive) | GI50 (A549): 19.9 µM (inactive) | GI50 (RXF 393): 18.8 µM (inactive) | GI50 (SW-620): 32 µM (inactive) | GI50 (BT-549): 23.7 µM (inactive) | GI50 (MCF7): 17.6 µM (inactive) | GI50 (SNB-75): 15.5 µM (inactive) | GI50 (Hs-578T): 18.9 µM (inactive) | GI50 (SK-MEL-28): 27.8 µM (inactive) | GI50 (OVCAR-4): 18.1 µM (inactive) | GI50 (SK-MEL-5): 16.4 µM (inactive) | GI50 (SK-OV-3): 23.2 µM (inactive) | GI50 (UO-31): 17 µM (inactive) | GI50 (SK-MEL-2): 17.7 µM (inactive) | GI50 (LOX IMVI): 19.2 µM (inactive) | GI50 (IGROV-1): 17.7 µM (inactive)
